Source: ChEMBL document CHEMBL2057108 (Bioorg Med Chem Lett, 2012)
Activity calls are given as the source filed them. The rule behind the calls is not given here.

How the values were obtained:
[1] = target: T1, 5-hydroxytryptamine receptor 4 (Homo sapiens, UniProt Q13639); assay: Agonist activity at human 5HT4C receptor expressed at 100 fold physiological-level in HEK293 cells assessed as cAMP accumulation; format: functional, cell-based
[2] = target: T1, 5-hydroxytryptamine receptor 4; assay: Intrinsic activity at human 5HT4C receptor expressed at 100 fold physiological-level in HEK293 cells assessed as cAMP accumulation relative to 5HT; format: functional, cell-based
[3] = target: T1, 5-hydroxytryptamine receptor 4; assay: biochemical
Description: Displacement of [3H]GR113808 from human recombinant 5HT4C receptor expressed in HEK293 cells

Homo sapiens = species on record: Homo sapiens; assay: Selectivity ratio of Ki for human 5HT3A receptor to Ki for human 5HT4C receptor
hERG (KCNH2) = hERG (KCNH2) (Homo sapiens, UniProt Q12809); assay: Inhibition of human ERG expressed in CHO cells at 3 uM; format: cell-based; conditions: CHO cells expressing human ERG
[4] = Oral bioavailability in Sprague-Dawley rat at 5 mg/kg; format: ADME, organism-based; conditions: in vivo
[5] = Cmax in Sprague-Dawley rat at 5 mg/kg, po; format: ADME, organism-based; set-up: dose 5 mg/kg, route oral; conditions: in vivo
[6] = Permeability across human Caco2 cells; format: ADME, cell-based; conditions: Caco-2, read-out: Kp
[7] = Half life in rat liver microsomes; format: ADME, Microsome; conditions: liver microsomes
[8] = Half life in Sprague-Dawley rat at 5 mg/kg, po; format: ADME, organism-based; set-up: dose 5 mg/kg, route oral; conditions: in vivo
[9] = AUC (0 to t) in Sprague-Dawley rat at 5 mg/kg, po; format: ADME, organism-based; set-up: dose 5 mg/kg, route oral; conditions: plasma
[10] = target: T1, 5-hydroxytryptamine receptor 4; assay: 5-HT4C receptor-mediated exchange of GDP for europium labeled GTP (pEC50)
[11] = target: T1, 5-hydroxytryptamine receptor 4; assay: Intrinsic activity at human 5HT4C receptor expressed in a cell line expressing receptor at 10 fold physiological-level assessed as cAMP accumulation relative to 5HT; format: functional
[12] = target: T1, 5-hydroxytryptamine receptor 4; assay: 5-HT4C receptor-mediated exchange of GDP for europium labeled GTP (intrinsic activity)
[13] = target: T1, 5-hydroxytryptamine receptor 4; assay: Agonist activity at human 5HT4C receptor expressed in a cell line expressing receptor at 10 fold physiological-level assessed as cAMP accumulation; format: functional
Rattus norvegicus [14] = assay: 5-HT4 receptor-mediated esophageal relaxation in anesthetized rat (following i.v. administration) using digital sonomicrometry; format: functional; conditions: Sprague-Dawley; for ED50: iv
[15] = target: T2, 5-hydroxytryptamine receptor 2C (Homo sapiens) (UniProt P28335); assay: Inhibition of 5HT2C receptor at 10 uM
T2 sequence (whole entry): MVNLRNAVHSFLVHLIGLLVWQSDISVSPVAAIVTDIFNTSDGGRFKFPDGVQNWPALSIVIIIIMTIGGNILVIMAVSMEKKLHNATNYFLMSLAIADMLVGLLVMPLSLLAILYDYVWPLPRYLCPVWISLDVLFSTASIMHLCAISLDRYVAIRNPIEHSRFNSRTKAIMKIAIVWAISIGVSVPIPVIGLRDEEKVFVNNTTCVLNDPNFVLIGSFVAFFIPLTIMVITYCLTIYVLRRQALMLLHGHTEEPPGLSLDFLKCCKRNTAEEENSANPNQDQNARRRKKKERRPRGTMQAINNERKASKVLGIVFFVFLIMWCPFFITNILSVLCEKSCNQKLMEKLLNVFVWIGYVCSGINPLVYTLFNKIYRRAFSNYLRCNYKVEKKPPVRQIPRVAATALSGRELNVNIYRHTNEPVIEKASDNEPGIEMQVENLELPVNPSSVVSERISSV

[16] = target: 5-hydroxytryptamine receptor 2A (Homo sapiens) (UniProt P28223); assay: Inhibition of 5HT2A receptor at 10 uM
[17] = target: T3, 5-hydroxytryptamine receptor 3A (Homo sapiens) (UniProt P46098); assay: Inhibition of 5HT3A receptor at 10 uM
T3 sequence (whole entry): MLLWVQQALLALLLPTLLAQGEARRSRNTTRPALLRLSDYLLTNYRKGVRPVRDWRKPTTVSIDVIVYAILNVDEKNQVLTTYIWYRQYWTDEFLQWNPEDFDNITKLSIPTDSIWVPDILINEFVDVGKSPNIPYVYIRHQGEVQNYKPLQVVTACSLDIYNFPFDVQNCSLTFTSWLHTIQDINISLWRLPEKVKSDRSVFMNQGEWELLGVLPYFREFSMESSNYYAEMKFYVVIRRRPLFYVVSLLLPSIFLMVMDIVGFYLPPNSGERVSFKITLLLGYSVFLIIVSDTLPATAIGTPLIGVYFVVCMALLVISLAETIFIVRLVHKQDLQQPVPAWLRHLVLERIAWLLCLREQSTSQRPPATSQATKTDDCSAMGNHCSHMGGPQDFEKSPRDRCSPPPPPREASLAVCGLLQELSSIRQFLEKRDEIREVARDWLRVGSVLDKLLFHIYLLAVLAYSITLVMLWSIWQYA

Rattus norvegicus [18] = assay: 5-HT4 receptor-mediated esophageal relaxation in anesthetized rat (following intraduodenal administration) using digital sonomicrometry; format: functional, organism-based; conditions: Sprague-Dawley
[19] = target: 5-hydroxytryptamine receptor 6 (Homo sapiens) (UniProt P50406); assay: Inhibition of 5HT6 receptor at 10 uM
[20] = target: 5-hydroxytryptamine receptor 1B (Homo sapiens) (UniProt P28222); assay: Inhibition of 5HT1B receptor at 10 uM
[21] = target: 5-hydroxytryptamine receptor 7 (Homo sapiens) (UniProt P34969); assay: Inhibition of 5HT7 receptor at 10 uM
[22] = target: T4, 5-hydroxytryptamine receptor 1A (Homo sapiens) (UniProt P08908); assay: Inhibition of 5HT1A receptor at 10 uM
T4 sequence (whole entry): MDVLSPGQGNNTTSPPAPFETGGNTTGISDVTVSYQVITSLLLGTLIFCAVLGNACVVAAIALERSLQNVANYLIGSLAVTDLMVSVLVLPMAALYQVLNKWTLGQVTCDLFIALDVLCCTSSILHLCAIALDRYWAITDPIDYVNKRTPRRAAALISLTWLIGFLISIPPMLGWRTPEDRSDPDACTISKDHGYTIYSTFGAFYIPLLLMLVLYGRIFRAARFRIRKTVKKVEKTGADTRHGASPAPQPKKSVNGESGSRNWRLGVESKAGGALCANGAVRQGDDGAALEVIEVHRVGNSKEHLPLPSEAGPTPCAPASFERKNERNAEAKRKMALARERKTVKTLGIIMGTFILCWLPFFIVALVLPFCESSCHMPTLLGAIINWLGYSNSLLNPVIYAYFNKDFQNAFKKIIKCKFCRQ

[23] = target: 5-hydroxytryptamine receptor 2B (Homo sapiens) (UniProt P41595); assay: Inhibition of 5HT2B receptor at 10 uM
[24] = target: 5-hydroxytryptamine receptor 4 (Cavia porcellus, UniProt O70528); assay: Agonist activity at 5HT4 receptor in guinea pig colon assessed as longitudinal muscle plexus contraction
[25] = target: 5-hydroxytryptamine receptor 1D (Homo sapiens) (UniProt P28221); assay: Inhibition of 5HT1D receptor at 10 uM
Cavia porcellus = assay: Agonist activity at 5HT4 receptor in sc dosed guinea pig assessed as decrease in colonic transit time of carmine red dye after 60 mins relative to vehicle treated control; format: functional, organism-based
[26] = target: 5-hydroxytryptamine receptor 5A (Homo sapiens) (UniProt P47898); assay: Inhibition of 5HT5A receptor at 10 uM
5-hydroxytryptamine receptor 5A (Homo sapiens), sequence (P47898 whole entry): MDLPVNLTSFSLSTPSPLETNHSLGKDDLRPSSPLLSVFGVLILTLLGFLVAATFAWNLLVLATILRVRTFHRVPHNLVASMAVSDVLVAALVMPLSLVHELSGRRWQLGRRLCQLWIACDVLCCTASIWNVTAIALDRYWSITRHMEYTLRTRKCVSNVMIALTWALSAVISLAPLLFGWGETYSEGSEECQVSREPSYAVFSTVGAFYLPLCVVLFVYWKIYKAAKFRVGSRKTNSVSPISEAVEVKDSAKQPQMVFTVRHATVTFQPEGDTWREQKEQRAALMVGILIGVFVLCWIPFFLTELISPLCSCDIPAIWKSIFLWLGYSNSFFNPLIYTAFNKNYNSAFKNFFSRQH

hERG (KCNH2), sequence (Q12809 whole entry): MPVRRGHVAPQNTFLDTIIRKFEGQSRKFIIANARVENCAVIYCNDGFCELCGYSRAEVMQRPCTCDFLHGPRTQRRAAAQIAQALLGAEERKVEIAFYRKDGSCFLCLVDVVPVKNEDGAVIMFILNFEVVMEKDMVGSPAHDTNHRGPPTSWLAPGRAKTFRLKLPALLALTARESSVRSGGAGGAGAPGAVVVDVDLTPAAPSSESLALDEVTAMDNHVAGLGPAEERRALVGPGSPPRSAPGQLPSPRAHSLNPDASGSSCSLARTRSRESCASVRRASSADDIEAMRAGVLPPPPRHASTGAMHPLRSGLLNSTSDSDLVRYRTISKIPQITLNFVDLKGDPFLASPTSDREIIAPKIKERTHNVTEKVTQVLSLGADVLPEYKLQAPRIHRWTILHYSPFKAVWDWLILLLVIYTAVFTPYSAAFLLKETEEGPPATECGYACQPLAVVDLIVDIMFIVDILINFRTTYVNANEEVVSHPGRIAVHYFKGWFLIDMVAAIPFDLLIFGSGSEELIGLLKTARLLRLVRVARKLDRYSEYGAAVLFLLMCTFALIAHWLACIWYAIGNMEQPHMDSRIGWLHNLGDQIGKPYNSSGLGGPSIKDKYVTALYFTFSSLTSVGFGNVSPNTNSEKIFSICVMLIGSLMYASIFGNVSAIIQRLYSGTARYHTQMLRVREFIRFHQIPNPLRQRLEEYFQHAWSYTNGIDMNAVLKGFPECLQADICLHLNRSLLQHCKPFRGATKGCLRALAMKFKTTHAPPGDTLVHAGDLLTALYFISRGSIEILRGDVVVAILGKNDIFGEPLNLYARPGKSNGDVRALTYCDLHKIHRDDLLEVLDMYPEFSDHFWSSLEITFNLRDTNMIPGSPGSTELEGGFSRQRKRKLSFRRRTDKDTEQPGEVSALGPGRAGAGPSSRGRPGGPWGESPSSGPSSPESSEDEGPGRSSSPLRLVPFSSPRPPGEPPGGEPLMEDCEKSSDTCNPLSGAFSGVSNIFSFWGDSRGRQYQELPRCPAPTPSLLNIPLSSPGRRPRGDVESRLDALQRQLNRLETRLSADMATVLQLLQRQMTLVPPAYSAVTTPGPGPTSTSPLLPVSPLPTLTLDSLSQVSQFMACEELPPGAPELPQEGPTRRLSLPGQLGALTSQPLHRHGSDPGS
T1 sequence (Q13639 whole entry): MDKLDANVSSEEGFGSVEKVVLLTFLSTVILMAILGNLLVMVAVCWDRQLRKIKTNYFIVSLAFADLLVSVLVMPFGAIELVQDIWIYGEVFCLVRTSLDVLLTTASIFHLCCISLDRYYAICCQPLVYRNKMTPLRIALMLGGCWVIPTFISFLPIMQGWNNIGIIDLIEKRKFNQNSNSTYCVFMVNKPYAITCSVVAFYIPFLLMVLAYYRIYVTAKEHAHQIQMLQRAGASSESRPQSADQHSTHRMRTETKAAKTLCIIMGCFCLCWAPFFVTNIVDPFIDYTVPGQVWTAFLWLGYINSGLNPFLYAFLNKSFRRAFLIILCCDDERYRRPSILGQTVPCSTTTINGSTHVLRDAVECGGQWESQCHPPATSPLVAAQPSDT
5-hydroxytryptamine receptor 4 (Cavia porcellus, UniProt O70528), sequence (O70528 whole entry): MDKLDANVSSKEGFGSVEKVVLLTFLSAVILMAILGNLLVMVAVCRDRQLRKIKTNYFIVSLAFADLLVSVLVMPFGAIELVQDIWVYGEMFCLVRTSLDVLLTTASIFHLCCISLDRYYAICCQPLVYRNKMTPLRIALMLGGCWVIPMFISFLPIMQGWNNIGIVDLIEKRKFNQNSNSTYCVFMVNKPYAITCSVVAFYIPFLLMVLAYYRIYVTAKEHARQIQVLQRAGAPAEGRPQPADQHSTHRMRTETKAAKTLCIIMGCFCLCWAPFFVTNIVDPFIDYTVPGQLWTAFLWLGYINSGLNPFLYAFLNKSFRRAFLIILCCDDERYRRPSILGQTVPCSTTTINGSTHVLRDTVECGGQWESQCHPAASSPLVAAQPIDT
5-hydroxytryptamine receptor 2B (Homo sapiens), sequence (P41595 whole entry): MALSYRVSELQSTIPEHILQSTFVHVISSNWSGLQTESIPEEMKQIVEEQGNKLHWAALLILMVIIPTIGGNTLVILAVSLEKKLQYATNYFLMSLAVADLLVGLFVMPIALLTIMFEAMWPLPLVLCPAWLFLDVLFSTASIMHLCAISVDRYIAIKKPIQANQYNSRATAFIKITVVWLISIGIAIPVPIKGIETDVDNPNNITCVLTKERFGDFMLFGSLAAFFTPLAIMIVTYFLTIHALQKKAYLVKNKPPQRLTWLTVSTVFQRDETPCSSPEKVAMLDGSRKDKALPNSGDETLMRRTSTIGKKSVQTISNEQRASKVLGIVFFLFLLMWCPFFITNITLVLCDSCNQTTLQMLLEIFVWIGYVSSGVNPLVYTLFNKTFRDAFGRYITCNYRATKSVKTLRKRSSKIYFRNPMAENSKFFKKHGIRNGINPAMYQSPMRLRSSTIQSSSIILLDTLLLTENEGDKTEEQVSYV
5-hydroxytryptamine receptor 1D (Homo sapiens), sequence (P28221 whole entry): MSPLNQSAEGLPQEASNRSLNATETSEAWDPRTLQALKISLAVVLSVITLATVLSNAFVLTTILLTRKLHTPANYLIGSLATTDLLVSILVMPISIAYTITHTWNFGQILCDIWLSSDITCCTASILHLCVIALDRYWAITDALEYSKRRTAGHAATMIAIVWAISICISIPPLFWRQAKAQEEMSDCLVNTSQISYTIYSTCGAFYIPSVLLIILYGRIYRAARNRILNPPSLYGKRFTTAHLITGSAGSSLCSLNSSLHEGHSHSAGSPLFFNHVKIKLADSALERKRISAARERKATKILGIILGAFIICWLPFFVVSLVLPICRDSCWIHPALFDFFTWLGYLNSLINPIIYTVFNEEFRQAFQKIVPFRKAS
5-hydroxytryptamine receptor 7 (Homo sapiens), sequence (P34969 whole entry): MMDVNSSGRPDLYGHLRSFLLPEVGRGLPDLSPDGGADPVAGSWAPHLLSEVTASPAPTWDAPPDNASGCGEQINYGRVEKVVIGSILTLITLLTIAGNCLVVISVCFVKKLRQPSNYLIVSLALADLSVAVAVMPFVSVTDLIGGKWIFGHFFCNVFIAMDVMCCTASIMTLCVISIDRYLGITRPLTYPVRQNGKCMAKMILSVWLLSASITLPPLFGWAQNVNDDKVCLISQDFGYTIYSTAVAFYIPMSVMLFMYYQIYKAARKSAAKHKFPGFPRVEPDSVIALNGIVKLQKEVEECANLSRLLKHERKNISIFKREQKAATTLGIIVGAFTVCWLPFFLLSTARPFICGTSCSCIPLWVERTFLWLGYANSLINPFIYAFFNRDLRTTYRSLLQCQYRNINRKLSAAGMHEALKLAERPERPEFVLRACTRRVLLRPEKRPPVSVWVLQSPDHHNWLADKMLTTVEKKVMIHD
5-hydroxytryptamine receptor 6 (Homo sapiens), sequence (P50406 whole entry): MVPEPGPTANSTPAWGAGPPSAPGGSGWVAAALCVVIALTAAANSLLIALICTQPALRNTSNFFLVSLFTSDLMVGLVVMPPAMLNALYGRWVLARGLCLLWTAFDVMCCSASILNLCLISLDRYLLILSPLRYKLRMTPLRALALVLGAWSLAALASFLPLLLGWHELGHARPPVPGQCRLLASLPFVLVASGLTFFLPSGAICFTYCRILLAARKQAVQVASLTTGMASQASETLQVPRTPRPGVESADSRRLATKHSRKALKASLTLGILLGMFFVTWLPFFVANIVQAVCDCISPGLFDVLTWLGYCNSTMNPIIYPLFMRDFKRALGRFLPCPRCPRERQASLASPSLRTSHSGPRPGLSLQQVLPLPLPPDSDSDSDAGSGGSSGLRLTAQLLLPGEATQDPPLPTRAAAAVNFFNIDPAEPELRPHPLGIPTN
5-hydroxytryptamine receptor 2A (Homo sapiens), sequence (P28223 whole entry): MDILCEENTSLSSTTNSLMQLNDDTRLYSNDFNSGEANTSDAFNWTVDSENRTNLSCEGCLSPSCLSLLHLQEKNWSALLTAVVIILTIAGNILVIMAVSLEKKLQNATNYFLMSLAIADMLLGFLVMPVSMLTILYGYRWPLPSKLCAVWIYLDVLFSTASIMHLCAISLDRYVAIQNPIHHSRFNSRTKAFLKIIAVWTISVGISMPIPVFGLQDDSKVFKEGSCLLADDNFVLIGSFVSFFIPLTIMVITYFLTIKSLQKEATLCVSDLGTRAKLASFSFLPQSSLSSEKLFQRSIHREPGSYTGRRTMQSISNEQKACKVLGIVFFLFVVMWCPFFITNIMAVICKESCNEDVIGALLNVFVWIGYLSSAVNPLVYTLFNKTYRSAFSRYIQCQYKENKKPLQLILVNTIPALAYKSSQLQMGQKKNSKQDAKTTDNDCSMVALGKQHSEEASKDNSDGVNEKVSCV
5-hydroxytryptamine receptor 1B (Homo sapiens), sequence (P28222 whole entry): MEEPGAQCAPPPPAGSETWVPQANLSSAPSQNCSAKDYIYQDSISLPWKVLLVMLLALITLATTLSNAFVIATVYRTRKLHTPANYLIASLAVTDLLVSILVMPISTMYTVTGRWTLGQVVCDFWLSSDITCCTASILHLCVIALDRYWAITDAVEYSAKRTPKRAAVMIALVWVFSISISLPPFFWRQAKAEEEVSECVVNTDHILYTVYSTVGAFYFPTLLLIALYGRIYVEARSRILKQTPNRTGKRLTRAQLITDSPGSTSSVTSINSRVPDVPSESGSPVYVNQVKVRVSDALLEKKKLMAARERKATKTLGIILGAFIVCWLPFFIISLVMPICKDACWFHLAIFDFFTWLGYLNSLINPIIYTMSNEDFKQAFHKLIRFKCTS

COC[C@@H]1CCCN1CCCCCCN1[C@@H]2CC[C@H]1C[C@@H](NC(=O)c1nn(C(C)C)c3ccccc13)C2
EC50 [1]: 0.794 nM
Intrinsic activity [2]: 117%
Ki [3]: 0.794 nM
Ratio Ki (Homo sapiens): 14

CC(C)n1nc(C(=O)N[C@H]2C[C@H]3CC[C@@H](C2)N3C[C@@H](O)CN2CCN(S(C)(=O)=O)CC2)c2ccccc21
inhibition at 3 µM (hERG (KCNH2)): 7%
bioavailability [4]: 36%
Cmax [5]: 35 ng/mL
Papp [6]: 19 ×10⁻⁶ cm/s
EC50 [1]: 0.398 nM
half-life [7]: > 1.5 h
half-life [8]: 7.4 h
Intrinsic activity [2]: 86%
Ki [3]: 2.51 nM
AUC(0-t) [9]: 240 ng·h/mL
Ratio Ki (Homo sapiens): 23000

CC(C)n1c(=O)c(C(=O)N[C@H]2C[C@H]3CC[C@@H](C2)N3C[C@@H](O)CN2CCN(S(C)(=O)=O)CC2)cc2ccccc21
EC50 [10]: 3.98 nM
Intrinsic activity [11]: > 100%
Intrinsic activity [12]: > 100%
EC50 [13]: 2 nM
ED50 (Rattus norvegicus [14]): 0.142 mg/kg
Ratio Ki (Homo sapiens): 7400

CC(=O)N1CCN(CCN2[C@@H]3CC[C@H]2C[C@@H](NC(=O)c2nn(C(C)C)c4ccccc24)C3)CC1
inhibition [15]: < 50%
inhibition [16]: < 50%
inhibition at 3 µM (hERG (KCNH2)): 9%
inhibition [17]: < 50%
Activity (Rattus norvegicus [18]): Dose-dependent effect
EC50 [10]: 6.31 nM
bioavailability [4]: > 100%
Cmax [5]: 254 ng/mL
Papp [6]: 31 ×10⁻⁶ cm/s
inhibition [19]: < 50%
EC50 [1]: 2.51 nM
inhibition [20]: < 50%
inhibition [21]: < 50%
Intrinsic activity [11]: 53%
half-life [7]: > 1.5 h
half-life [8]: 3.2 h
inhibition [22]: < 50%
Intrinsic activity [12]: 57%
inhibition [23]: < 50%
EC50 [24]: 10 nM
Intrinsic activity [2]: 83%
EC50 [13]: 10 nM
Ki [3]: 10 nM
Activity (Rattus norvegicus [14]): Dose-dependent effect
ED50 (Rattus norvegicus [14]): 0.0378 mg/kg
AUC(0-t) [9]: 730 ng·h/mL
inhibition [25]: < 50%
Ratio Ki (Homo sapiens): 980
Activity (Cavia porcellus): Active
inhibition [26]: < 50%

CC(C)n1nc(C(=O)N[C@H]2C[C@H]3CC[C@@H](C2)N3CCCCCCN2CCCCC2)c2ccccc21
EC50 [1]: 2.51 nM
Intrinsic activity [2]: 102%
Ki [3]: 1 nM
Ratio Ki (Homo sapiens): 12

CC(C)n1nc(C(=O)N[C@H]2C[C@H]3CC[C@@H](C2)N3CCN2CCN(S(C)(=O)=O)CC2)c2ccccc21
inhibition at 3 µM (hERG (KCNH2)): 9%
bioavailability [4]: 48%
Cmax [5]: 99 ng/mL
Papp [6]: 31 ×10⁻⁶ cm/s
EC50 [1]: 3.98 nM
half-life [7]: > 1.5 h
half-life [8]: 1.8 h
Intrinsic activity [2]: 88%
Ki [3]: 12.6 nM
AUC(0-t) [9]: 260 ng·h/mL
Ratio Ki (Homo sapiens): 110

CC(C)n1nc(C(=O)N[C@H]2C[C@H]3CC[C@@H](C2)N3CCCCCCN2CCC(CNS(C)(=O)=O)CC2)c2ccccc21
EC50 [1]: 1.58 nM
Intrinsic activity [2]: 91%
Ki [3]: 1.58 nM
Ratio Ki (Homo sapiens): 4.3

CC(C)N(C)CC(O)CN1[C@@H]2CC[C@H]1C[C@@H](NC(=O)c1nn(C(C)C)c3ccccc13)C2 (some centres not stated)
inhibition at 3 µM (hERG (KCNH2)): 29%
Papp [6]: 26 ×10⁻⁶ cm/s
EC50 [1]: 5.01 nM
half-life [7]: > 1.5 h
Intrinsic activity [2]: 78%
Ki [3]: 3.98 nM
Ratio Ki (Homo sapiens): 6300

CCCCCNC(=N)N/N=C/c1c[nH]c2ccc(OC)cc12 [TEGASEROD]
inhibition at 3 µM (hERG (KCNH2)): 33%
EC50 [10]: 15.8 nM
EC50 [1]: 1 nM
Intrinsic activity [11]: 99%
Intrinsic activity [12]: 71%
EC50 [24]: 6.31 nM
Intrinsic activity [2]: 115%
pEC50 [13]: 8.7
Ratio Ki (Homo sapiens): 580
Activity (Cavia porcellus): inactive
